Source: ChEMBL document CHEMBL1201862, “PubChem BioAssay data set” (2004)
Active and inactive are the calls of the source.

What was measured:
Estrogen receptor = molecular target: T1, Estrogen receptor (Homo sapiens, UniProt P03372);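 further: potency for inhibiting coactivator peptide recruitment to the receptor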
T1 sequence (P03372 whole entry): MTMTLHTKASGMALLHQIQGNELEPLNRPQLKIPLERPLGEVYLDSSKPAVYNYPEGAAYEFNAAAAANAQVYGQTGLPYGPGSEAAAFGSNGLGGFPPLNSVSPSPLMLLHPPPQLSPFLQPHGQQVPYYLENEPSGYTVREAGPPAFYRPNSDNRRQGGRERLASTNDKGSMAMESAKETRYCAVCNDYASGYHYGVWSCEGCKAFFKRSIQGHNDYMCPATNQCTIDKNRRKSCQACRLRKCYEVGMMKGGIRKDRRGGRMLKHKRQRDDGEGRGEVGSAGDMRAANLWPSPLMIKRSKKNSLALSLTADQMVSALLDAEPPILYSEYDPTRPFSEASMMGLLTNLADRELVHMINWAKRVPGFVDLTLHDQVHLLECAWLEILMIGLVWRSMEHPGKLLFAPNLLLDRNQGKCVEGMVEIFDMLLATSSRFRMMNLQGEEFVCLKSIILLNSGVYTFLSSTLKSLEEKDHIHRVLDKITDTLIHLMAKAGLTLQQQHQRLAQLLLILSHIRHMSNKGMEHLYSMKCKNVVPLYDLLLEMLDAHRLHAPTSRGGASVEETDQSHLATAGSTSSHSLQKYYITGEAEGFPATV

Bcl-2-like protein 10 = molecular target: T2, Bcl-2-like protein 10 (Homo sapiens, UniProt Q9HD36); assay: displacers of TR3 peptide from Bcl-B, primary screen, selectivity assay for Bfl-1 inhibitor project, biochemical, fluorescence polarization, FITC-TR3 peptide (AID 748);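 further: fluorescence polarization from a fluorescein-labelled TR3 peptide binding purified Bcl-B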
T2 sequence (Q9HD36 whole entry): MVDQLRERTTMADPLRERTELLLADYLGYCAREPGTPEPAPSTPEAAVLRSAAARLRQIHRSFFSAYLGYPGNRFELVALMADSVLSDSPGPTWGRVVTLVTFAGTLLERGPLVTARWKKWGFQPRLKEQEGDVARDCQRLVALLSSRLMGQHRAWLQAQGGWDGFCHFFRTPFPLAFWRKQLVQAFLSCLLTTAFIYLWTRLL

[1] = molecular target: Epstein-Barr nuclear antigen 1 (Epstein-Barr virus (strain B95-8) (HHV-4) (Human herpesvirus 4), UniProt P03211); assay: EBNA-1 inhibitors, dose response, biochemical, fluorescence polarization, 1536-well (AID 2381); design: species or system human gammaherpesvirus 4;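 further: fluorescence polarization of a Cy5 DNA probe bound by EBNA-1 protein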
Epstein-Barr nuclear antigen 1, sequence (P03211 whole entry): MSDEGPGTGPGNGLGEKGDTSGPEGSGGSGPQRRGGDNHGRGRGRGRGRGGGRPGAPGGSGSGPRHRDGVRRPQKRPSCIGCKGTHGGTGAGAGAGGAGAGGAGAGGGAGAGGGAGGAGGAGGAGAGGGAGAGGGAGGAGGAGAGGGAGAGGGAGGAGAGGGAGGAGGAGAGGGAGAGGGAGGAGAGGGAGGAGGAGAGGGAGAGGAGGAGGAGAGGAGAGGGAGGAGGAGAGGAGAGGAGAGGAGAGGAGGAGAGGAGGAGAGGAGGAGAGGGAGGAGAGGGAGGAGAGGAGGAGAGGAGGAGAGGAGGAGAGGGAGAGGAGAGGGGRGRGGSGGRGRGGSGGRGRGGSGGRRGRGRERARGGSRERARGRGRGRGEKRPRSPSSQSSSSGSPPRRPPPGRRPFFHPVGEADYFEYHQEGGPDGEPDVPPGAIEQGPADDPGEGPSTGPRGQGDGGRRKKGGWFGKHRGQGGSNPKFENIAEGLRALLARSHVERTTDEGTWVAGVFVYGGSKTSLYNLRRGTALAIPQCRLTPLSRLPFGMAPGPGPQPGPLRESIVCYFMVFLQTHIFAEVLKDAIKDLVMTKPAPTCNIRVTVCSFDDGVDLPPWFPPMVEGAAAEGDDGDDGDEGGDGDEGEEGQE

[2] = molecular target: Lytic switch protein BZLF1 (Epstein-Barr virus (strain B95-8) (HHV-4) (Human herpesvirus 4), UniProt P03206); assay: EBV ZTA inhibitors, dose response, counter-screen for EBNA-1 inhibitor project, biochemical, fluorescence polarization, Epstein-Barr virus, 1536-well (AID 2377); design: species or system human gammaherpesvirus 4;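 further: fluorescence polarization of Cy5-labelled ZRE DNA probe bound by purified Zta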
Lytic switch protein BZLF1, sequence (P03206 whole entry): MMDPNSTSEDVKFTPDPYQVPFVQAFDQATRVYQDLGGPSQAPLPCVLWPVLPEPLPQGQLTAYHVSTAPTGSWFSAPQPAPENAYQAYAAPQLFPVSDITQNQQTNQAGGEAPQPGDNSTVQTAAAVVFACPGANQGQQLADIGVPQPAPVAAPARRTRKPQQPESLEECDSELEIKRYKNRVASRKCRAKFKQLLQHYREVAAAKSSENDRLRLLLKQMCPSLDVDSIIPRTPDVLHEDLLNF

Insulin-degrading enzyme = molecular target: T3, Insulin-degrading enzyme (Homo sapiens, UniProt P14735); assay: Dose Response: Fluorescence polarization-based cell-based high throughput dose response assay for inhibitors of insulin-degrading enzyme (IDE). [Related pubchem assays: 434962 (Primary screen (IDE inhibitors in singlicate)), 449730 (Counterscreen (Cytotoxicity in triplicate)), 435028 (Confirmation (IDE inhibitors in triplicate)), 434984 (Summary …; assay type: functional
T3 sequence (P14735 whole entry): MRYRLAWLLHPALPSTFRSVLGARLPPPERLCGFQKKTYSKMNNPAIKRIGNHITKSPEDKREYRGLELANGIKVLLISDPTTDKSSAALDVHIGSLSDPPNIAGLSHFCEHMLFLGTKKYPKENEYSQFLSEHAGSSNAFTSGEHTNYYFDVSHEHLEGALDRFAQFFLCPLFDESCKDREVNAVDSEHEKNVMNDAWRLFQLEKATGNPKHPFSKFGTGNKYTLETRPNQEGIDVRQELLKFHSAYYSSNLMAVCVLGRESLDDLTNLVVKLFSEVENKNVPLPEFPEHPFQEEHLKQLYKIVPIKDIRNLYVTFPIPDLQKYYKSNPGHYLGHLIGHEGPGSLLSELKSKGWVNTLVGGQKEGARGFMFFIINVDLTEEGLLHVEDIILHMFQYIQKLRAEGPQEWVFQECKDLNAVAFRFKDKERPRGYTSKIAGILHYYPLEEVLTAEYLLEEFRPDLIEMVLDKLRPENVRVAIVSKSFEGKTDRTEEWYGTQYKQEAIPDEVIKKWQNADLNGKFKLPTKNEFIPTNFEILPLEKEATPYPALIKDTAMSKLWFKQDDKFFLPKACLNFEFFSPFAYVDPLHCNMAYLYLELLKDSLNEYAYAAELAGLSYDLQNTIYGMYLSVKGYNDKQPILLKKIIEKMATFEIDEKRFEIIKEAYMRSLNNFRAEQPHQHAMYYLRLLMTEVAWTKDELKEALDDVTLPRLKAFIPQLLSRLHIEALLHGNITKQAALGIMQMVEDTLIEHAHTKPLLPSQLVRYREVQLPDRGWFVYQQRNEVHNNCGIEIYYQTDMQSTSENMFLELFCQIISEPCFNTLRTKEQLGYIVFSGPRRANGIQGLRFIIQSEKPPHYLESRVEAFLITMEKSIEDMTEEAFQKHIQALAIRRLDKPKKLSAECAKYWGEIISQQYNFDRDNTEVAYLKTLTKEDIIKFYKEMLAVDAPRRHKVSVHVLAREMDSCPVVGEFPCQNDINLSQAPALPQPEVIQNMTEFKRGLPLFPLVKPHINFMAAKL

Vasopressin V1a receptor = Vasopressin V1a receptor (Homo sapiens, UniProt P37288); assay: Fluorescence-based cell-based high throughput dose response screening assay for agonists of the vasopressin 1 receptor (V1R).; assay type: functional
Vasopressin V1a receptor, sequence (P37288 whole entry): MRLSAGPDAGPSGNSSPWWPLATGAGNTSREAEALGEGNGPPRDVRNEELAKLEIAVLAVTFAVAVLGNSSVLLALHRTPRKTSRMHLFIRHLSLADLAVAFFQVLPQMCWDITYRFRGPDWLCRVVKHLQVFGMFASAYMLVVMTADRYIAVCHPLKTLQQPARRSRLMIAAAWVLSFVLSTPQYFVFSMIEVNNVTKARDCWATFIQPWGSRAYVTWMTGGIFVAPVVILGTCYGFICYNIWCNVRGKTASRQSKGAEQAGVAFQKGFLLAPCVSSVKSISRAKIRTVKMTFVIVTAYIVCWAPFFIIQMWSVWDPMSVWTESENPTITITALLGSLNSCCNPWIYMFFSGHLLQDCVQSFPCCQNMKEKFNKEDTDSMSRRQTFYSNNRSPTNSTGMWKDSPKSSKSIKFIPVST

Oxytocin receptor = Oxytocin receptor (Homo sapiens, UniProt P30559); assay: Counterscreen for vasopressin 1 receptor (V1R) agonists: Fluorescence-based cell-based high throughput dose response assay for agonists of the Oxytocin Receptor (OXTR). [Related pubchem assays: 2435 (Primary screen (OXTR agonists in singlicate)), 434964 (Confirmation screen (V1R agonists in triplicate)), 434969 (Counterscreen (OXTR agonists in …; assay type: functional
Oxytocin receptor, sequence (P30559 whole entry): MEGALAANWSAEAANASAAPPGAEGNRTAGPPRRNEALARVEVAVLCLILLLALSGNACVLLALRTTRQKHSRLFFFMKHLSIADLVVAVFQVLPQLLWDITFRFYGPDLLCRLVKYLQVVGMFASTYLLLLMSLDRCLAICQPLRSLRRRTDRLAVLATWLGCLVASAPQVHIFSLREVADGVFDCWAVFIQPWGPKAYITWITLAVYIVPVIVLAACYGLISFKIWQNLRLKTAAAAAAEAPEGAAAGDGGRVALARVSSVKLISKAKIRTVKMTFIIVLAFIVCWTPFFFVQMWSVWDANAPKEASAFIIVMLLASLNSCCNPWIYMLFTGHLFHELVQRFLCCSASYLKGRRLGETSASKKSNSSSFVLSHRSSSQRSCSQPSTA

[3] = Counterscreen for IDE inhibitors: Luminescence-based cell-based high throughput dose response assay to identify compounds that are cytotoxic to HEK cells. [Related pubchem assays: 434962 (Primary screen (IDE inhibitors in singlicate)), 449730 (Counterscreen (Cytotoxicity in triplicate)), 435028 (Confirmation (IDE inhibitors in triplicate)) …; assay type: functional; conditions: HEK293

CCOC(=O)C1=C(C)S/C(=C\N(C)C)C1=O
IC50 (Estrogen receptor): 40.3 µM (not active) | IC50 (Bcl-2-like protein 10): 37.8 µM (active)

O=C(CSc1nc2ccc(NC(=O)CSc3nnnn3-c3ccccc3)cc2s1)Nc1ccccc1
IC50 [1]: 12 µM (not active) | IC50 [2]: > 111 µM (not active)

CC(OC(=O)/C(C#N)=C/c1ccc(N(C)C)cc1)C(=O)N(C)Cc1ccccc1 (stereo not drawn)
IC50 (Insulin-degrading enzyme): 12.8 µM (not active) | EC50 (Vasopressin V1a receptor): > 3.32 µM (active) | EC50 (Oxytocin receptor): > 9.97 µM (active) | IC50 [3]: 16.5 µM (not active)
